The record followed here is patent publication US12707888B2, “Asymmetric donor-acceptor molecular dyes” (THE UNIVERSITY OF NORTH CAROLINA AT CHARLOTTE, priority 2019, dated 2026).

Data set [1] in a line: Temperature studies of emission in MeTHF (thermofluorochromism). It counts as physicochemical. The note with it: for wavelength of emission: 10 μM in MeTHF. On the procedure:
In an extension of sensing the surrounding polarity, the dependence of the wavelength of emission as a function of temperature and pH were also explored. For these efforts, Bu2N-TTz-Py was chosen as a focal representative of the asymmetric TTzs for its solubility, amphiphilicity, high Stokes shifts, and otherwise similar photophysical characteristics. For the temperature studies, a 10 μM MeTHF solution of Bu2N-TTz-Py was prepared and the emission of the solution was monitored from −196-60° C. MeTHF was chosen for its wide liquid temperature window and ability to form a glass upon freezing; most other solvents crystallize upon solidification and inhibit fluorescence. The low temperature studies were achieved using various liquid N2 cooling baths (see Experimental). Due to the condensation of atmospheric moisture during low-temperature testing, only the normalized emission intensities are reported. […] At temperatures near the freezing point of MeTHF and below, however, the wavelength of emission rapidly blue-shifts from 559 to 544 to 503 nm at −131, −136, and −196° C., respectively.
4-pyridine carboxaldehyde, 4-(dibutylamino)benzaldehyde, 4-(diphenylamino)benzaldehyde, terephthalaldehyde, dithiooxamide, and all solvents used for spectroscopic measurements were purchased from Sigma-Aldrich and used without further purification. ^1H and ^13CNMR measurements were obtained with either a JEOL 300 MHz NMR or a JEOL 500 MHz NMR. High resolution mass spectra were obtained using a Thermo Fisher Scientific MSQ Plus Single Quadrupole Mass Spectrometer. Solution-state UV-Vis spectra were collected on a Cary 300 UV-Vis spectrophotometer. Time-resolved measurements were taken on a Jobin Yvon-Spex Fluorolog equipped with a 389 nm diode laser for time-resolved PL decay measurements. Igor Pro 6.3 software was used to fit PL(t) decay data to single/multiple exponential decays. Quantum yields were calculated using 9,10-diphenylanthracene as a reference (quantum yield [ΦF] in cyclohexane=0.97).^40-41 Density functional theory (DFT) calculations were performed with Spartan computational software using B3LYP^42-43 density functional and 6-31G*^44 basis set. Temperature studies were conducted using a 10 μM Bu2N-TTz-Py MeTHF solution placed inside of a Norrell 502 NMR tube and sequentially submerged in the following liquid N2 baths:octanol (−16° C.), acetonitrile (−41° C.), acetone (−94° C.), pentane (−131° C.), MeTHF (−136° C.), and liquid N2 itself (−196° C.). The phosphorescence spectrum of Bu2N-TTz-Py (see S2) was collected similarly at −196° C. by pumping with 389 nm light while inside a liquid nitrogen bath and then probing the emission within 2 sec of removing from the bath. Human embryonic kidney cells (HEK 293T) were a kind gift from Prof. Bryan Dickinson, and Mouse macrophage J774A.1 cells were a kind gift from Prof. Deborah Nelson at the University of Chicago. Cells were cultured in Dulbecco's Modified Eagle's Medium (Invitrogen Corporation, USA) containing 10% heat inactivated Fetal Bovine Serum (FBS) (Invitrogen Corporation, USA), 100 U/mL penicillin, and 100 μg/mL streptomycin. Cells were maintained at 37° C. under 5% CO2.

The next data set deals with HEK 293T cells. The data set can be described thus: Photostability under continuous illumination in cells. The class given is cell-based, Human. On the procedure:
FIG. 12B details photostability of Bu2N-TTz-Py and VF2.1.Cl in HEK 293T cells (illuminated using λ=440 nm at […]) and their representative pseudo-gray scale images under continuous illumination at wavelength of maximum excitation. Error bars a/b represent the standard error of mean (S.E.M.) for 3 independent experiments, n=12 total cells. Scale bar=10 μm.
Microscopy. Imaging was carried out on an IX83 inverted microscope (Olympus Corporation of the Americas, Center Valley, PA, USA) using 100×, 1.4 NA, DIC oil immersion objective (PLAPON, Olympus) and an Evolve Delta 512 EMCCD camera (Photometrics, USA). Filter wheel, shutter, and CCD camera were controlled using Metamorph premier Ver 7.8.12.0 (Molecular Devices, LLC, USA). For photostability studies, HEK 293T cells were labeled with 500 nM Bu2N-TTz-Py and illuminated continuously with ~5 W cm^−2 power light source, periodically acquiring images at 1 min interval. Bu2N-TTz-Py channel images were obtained using 480/20 bandpass excitation filter, 575/40 bandpass emission filter and 89016 dichroic. VF2.1.Cl channel images were obtained using 500/20 bandpass excitation filter, 535/40 bandpass emission filter and 69002 dichroic. For CellMask™ red, images were obtained using the 640/30 bandpass excitation filter, 705/72 bandpass emission filter and 89016 dichroic.

Take `CCCCN(CCCC)c1ccc(-c2nc3sc(-c4ccncc4)nc3s2)cc1` [Bu2N-TTz-Py, 2-(N,N-dibutyl-4-aminophenyl)-5-(4-pyridyl) thiazolo[5,4-d]thiazole]: the wavelength of emission is on record as 519 nm in data set [1] (60° C.), 559 nm in data set [1] (−131° C.), 544 nm in data set [1] (−136° C.) and 503 nm in data set [1] (−196° C.). Besides, the “temperature sensitivity of emission wavelength” value in data set [1] (TTz/MeTHF solution, liquid range of MeTHF) is on record as −0.21 nm ° C.^−1. For the same compound, the “molar absorptivity ε” value in the data set with HEK 293T cells (@ 440 nm LED) was 15,000-20,000 cm^−1 M^−1. In addition, in the data set with HEK 293T cells (in the same amount of time (approx. 7.5 minutes), I=5 W cm^−2, 440 nm LED), the “decay of fluorescence intensity” value is “less than 10%”.
